# Source: patent US20210106687A1, “BOLAAMPHIPHILIC COMPOUNDS, COMPOSITIONS AND USES THEREOF” (Lauren Sciences LLC, priority 2012, published 2021)
# Assays:
# b.End3 cells [1] = experiment: Internalization of CF by the cells in vitro, FACS; format: cell-based, mouse; settings: equivalent to 0.5 μg/mL CF
# Experimental: b.End3 immortalized mouse brain capillary endothelium cells were kindly provided by Prof Philip Lazarovici (Institute for Drug Research, School of Pharmacy, The Hebrew University of Jerusalem, Israel). The b.End3 cells were cultured in DMEM medium supplemented with 10% fetal bovine serum, 2 mM L-Glutamine, 100 IU/mL penicillin and 100 μg/mL streptomycin (Biological Industries Ltd., Beit Haemek, Israel). The cells were maintained in an incubator at 37° C. in a humidified atmosphere with 5% CO2.
# All the images were acquired using the same imaging settings and were not corrected or modified.
# The inventors investigated whether this trend is still apparent in the interaction of magnetic and non-magnetic bolavesicles with brain capillary endothelial cells. To this end, the inventors used murine b.End3 cells, which are one of the most extensively used cell lines for brain uptake and permeability studies^25. […] Previously, the inventors extensively used ^b.End3 cells to analyze uptake and intracellular fate of bolavesicles encapsulating model proteins and marker compounds^8.
# b.End3 cells [2] = experiment: Internalization of CF by the cells in vitro, confocal fluorescence microscopy; format: cell-based, mouse; settings: 5 h at 37° C.; FIG. 4
# Experimental: b.End3 cells were grown on 24-well plates or on coverslips (for FACS and fluorescence microscopy analysis, respectively). The medium was replaced with culture medium without serum and CF solution, or tested bolavesicles (equivalent to 0.5 μg/mL CF), or equivalent volume of the medium were added to the cells and incubated for 5 hr at 4° C. or at 37° C. At the end of the incubation, cells were extensively washed with complete medium and with PBS, and were either detached from the plates using trypsin-EDTA solution (Biological Industries Ltd., Beit Haemek, Israel) and analyzed by FACS (FACSCalibur Flow Cytometer, BD Biosciences, USA), or fixed with 2.5% formaldehyde in PBS, washed twice with PBS, mounted on slides using Mowiol-based mounting solution and analyzed using a FV1000-IX81 confocal microscope (Olympus, Tokyo, Japan) equipped with 60× objective. All the images were acquired using the same imaging settings and were not corrected or modified.
substance,measurement,setting,value
carboxyfluorescein [CF],Internalization by b.End3 cells (FACS),b.End3 cells [1]; 5 hr at 4° C.,not able to internalize
same,Internalization by b.End3 cells (FACS),b.End3 cells [1]; 5 hr at 37° C.,not able to internalize
same,Endocytosis of CF by b.End3 cells (confocal microscopy),b.End3 cells [2],endocytosed by the bEnd.3 cells only when encapsulated within the bolavesicles
